{
  "source": "patent US6013642A",
  "about": "“Use of estrone derivatives as steroid sulphatase inhibitors” (priority 1994, dated 2000)",
  "key": {"[1]": {"system": "mouse delayed type hypersensitivity model", "assay": "Delayed type hypersensitivity (SRBC, footpad swelling) in the mouse", "type": "in vivo", "details": "FIG. 11, 24 h post challenge", "protocol": "2. Delayed Type Hypersensitivity (DTH)\nOn day 0, animals were injected intravenously with 10^6 washed SRBC in 0.1 ml saline. Four days later animals were challenged in the right hind footpad with 10^6 washed SRBC in 50 μl saline. Footpad thickness is measured prior to challenge, 24, 48 and 72 hours post challenge using calipers. Footpad swelling is determined as the difference in thickness prior and post challenge. The data are expressed as percentage change from the vehicle treated groups given sensitisation and challenge.\nAnimals were randomised into 10 groups (n=7-8) and steroids given on day 0 and 4.\nSteroids were given on day 0 and 3 subcutaneously. Response at 24 h post challenge. Results given as mean±sem. $, *p<0.05 ANOVA."}, "[2]": {"biological_target": "T1, human placental microsomal DHEAS sulphatase (Homo sapiens, UniProt P08842)", "T1 construct": "Human placental microsomes prepared as described in; from tissue; host or cells: human placenta, microsomes (prepared as Santner et al 1984)", "T1 sequence (P08842 22-583)": "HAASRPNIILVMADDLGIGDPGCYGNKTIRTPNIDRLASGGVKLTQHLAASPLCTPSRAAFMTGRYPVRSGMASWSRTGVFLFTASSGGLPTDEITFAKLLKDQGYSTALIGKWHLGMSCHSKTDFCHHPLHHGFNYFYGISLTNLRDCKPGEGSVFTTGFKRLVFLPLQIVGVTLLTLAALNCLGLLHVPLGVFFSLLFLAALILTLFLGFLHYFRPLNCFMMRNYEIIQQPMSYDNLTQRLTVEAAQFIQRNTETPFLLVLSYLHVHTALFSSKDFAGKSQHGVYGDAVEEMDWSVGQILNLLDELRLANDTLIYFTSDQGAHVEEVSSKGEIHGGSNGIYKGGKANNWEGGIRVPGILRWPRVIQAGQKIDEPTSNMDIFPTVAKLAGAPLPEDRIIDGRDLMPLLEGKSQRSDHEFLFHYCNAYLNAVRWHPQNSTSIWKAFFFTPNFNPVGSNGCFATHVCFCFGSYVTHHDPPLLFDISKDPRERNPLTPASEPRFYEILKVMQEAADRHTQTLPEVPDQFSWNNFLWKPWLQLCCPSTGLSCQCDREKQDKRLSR", "assay": "Human placental microsomal steroid sulphatase assay", "type": "biochemical", "protocol": "a) Human placental microsomal steroid sulphatase\nENZYME: Human placental microsomes prepared as described in (Santner, S. J., et al (1984) J. Clin. Endocrinol. Metab. 59 29).\nASSAY: All assays were carried out in (at least) duplicate. The reaction mixture consisted of either PBS+250 mM sucrose (placental microsomes), containing 1 μmol/1 DHEAS [concentration chosen because approx. […]] with 0.05% (v/v) [^3 H] substrate and 0.05% (v/v) [^14 C] DHEA) in 0.5% (v/v DMSO. The reaction was initiated by addition of appropriately diluted) such that 10% substrate conversion occurred during the assay) enzyme and incubated for 30 min at 30° C. Reactions were stopped by addition of 1000 μl toluene to the reaction mixture, vortexed (2*40 sec on max setting of multitube vortexer), then allow to settle for 5 min. 500 μl top (solvent) layer removed to scintillation vial. add 10 ml scintillation fluid (Ultima Gold XR) then counted for radioactivity on a scintillation counter. As controls, enzyme was excluded from some reaction mixtures and 50% solvent and aqueous layers removed and counted for radioactivity in order to determine background (in solvent layer) and total (in aqueous layer) [^3 H]. [^14 C] DHEA is included to enable back correction to allow for product (DHEA) recovery (normally >98%). […]"}, "[3]": {"system": "rat delayed type hypersensitivity model", "assay": "Delayed type hypersensitivity in the rat", "type": "in vivo, Lewis rats", "details": "FIG. 12; CT2251 0.1, 1, 10 mg/kg s.c. days 0, 3 and 4; 24 and 48 h", "protocol": "Lewis rats were sensitised with SRBC IV and challenged 4 days later with 10^8 SRBC into the footpad. The resulting swelling response was measured 24 and 48 h later. Rats were randomised into 5 groups (n=6-7) and steroids given on days 0, 3 and 4, subcutaneously. Results given as mean±sem."}, "carrageenan pleurisy": {"system": "carrageenan pleurisy", "assay": "Carrageenan pleurisy", "type": "in vivo, Wistar Rats", "details": "FIG. 14; CT2251 10 mg/kg p.o. at -24 h and -1 h; six hours", "protocol": "Wistar Rats were anaesthetised and given intra-pleural injections of 0.5% carrageenan in saline at time 0. Six hours later the animals were killed and pleural cavity lavaged with 1 ml. citrated saline. Volume of fluid exudate and exudate cell concentration were measured. Animals were randomised to 5 treatment groups (n=6)."}, "[4]": {"system": "collagen II-induced arthritis", "assay": "Collagen II-induced arthritis in mice", "type": "in vivo, Male DBA/1 mice", "details": "FIG. 13; CT2251 10 mg/kg on day -1 and weekly", "protocol": "Male DBA/1 mice were sensitised with type II collagen into the base of the tail in FCA in day 0. These animals received a further injection of CII in FICA (Freunds Incomplete Adjuvant) on day 18 and incidence and severity of arthritis assessed from day 25. Mice were randomised into 3 groups (n=10)."}, "[5]": {"system": "mouse contact sensitisation model", "assay": "Cellular infiltrate (anti-CD3 / anti-Mac-1 positive cells) in challenged ears, contact sensitisation", "type": "in vivo, mice", "details": "Experiment 7, FIG. 10, 24 h following challenge", "protocol": "Animals were randomised into 7 groups (n=7-10) and steroids given on days 0 and 5. At 24 h following challenge, ears were removed, fixed and stained with either an anti-CD3 (T-cells) or anti-Mac-1 (monocytes/macrophages) antibody and the number of positive cells counted in 10 random fields."}},
  "note": "pIC50: −log10 of the molar value.",
  "data": [
    {"smiles": "C[C@]12CC[C@@H]3c4ccc(OS(N)(=O)=O)cc4CC[C@H]3[C@@H]1CCC2=O", "note": "[CT 2251, Estrone 3-0-sulphamate]", "values": [
      {"measurement": "foot swelling response, inhibitor on its own", "setting": "[1]; CT2251 0.1 and 10 mg/kg s.c.", "result": "can markedly reduce the foot swelling response"},
      {"measurement": "effect on DHEAS-mediated augmentation of foot swelling", "setting": "[1]; CT2251 0.1 and 10 mg/kg with DHEAS 5 mg/kg s.c.", "result": "can effectively reverse the DHEAS-mediated augmentation"},
      {"measurement": "pIC50", "setting": "[2]", "result": 8.30},
      {"measurement": "DTH footpad swelling response", "setting": "[3]", "result": "can also suppress a DTH response in rats"},
      {"measurement": "reduction of cell infiltrate", "setting": "carrageenan pleurisy", "result": 28, "unit": "%"},
      {"measurement": "reduction of exudate volume", "setting": "carrageenan pleurisy", "result": 43, "unit": "%"},
      {"measurement": "development of arthritis (incidence and severity)", "setting": "[4]", "result": "prevented the development of any disease"},
      {"measurement": "effect on DHEAS-augmented cell infiltrate", "setting": "[5]; CT2251 10 mg/kg with DHEAS 5 mg/kg", "result": "effectively reversed"},
      {"measurement": "number of infiltrating CD3 positive cells, inhibitor on its own", "setting": "[5]; CT2251 10 mg/kg", "result": "able to further reduce the number of infiltrating CD3 positive cells"}
    ]}
  ]
}
